Where a name gives a salt, the structure may show the parent alone.
Columns and labels:
Format in all cases: in vivo
Design in all cases: key: 0 indicates no effect; 5 indicates complete kill
Pteridium aquilinum = experiment: Foliage treatment of naturally growing weeds and brush (Example 9); settings: Plant No. 20 Pteridium aquilinum, One month
Description: (§1) Aqueous solutions of Phosalacine (Na salt) at different concentrations and 0.1% of octylphenylpolyoxy ethanol as surfactant were applied to the area where various weeds and brush were naturally growing at a rate of 1500 liter per hectare. One month after the foliage treatment, damage to weeds and brush was visually assessed on a scale of from 0 to 5 where 0 indicates no effect and 5 indicates complete kill as hereinbefore defined.

Zanthoxylum piperitum = experiment: as above; settings: Plant No. 19 Zanthoxylum piperitum, One month
Description: as §1

Viburnum dilatatum = experiment: as above; settings: Plant No. 21 Viburnum dilatatum, One month
Description: as §1

Rubus palmatus = experiment: as above; settings: Plant No. 18 Rubus palmatus, One month
Description: as §1

Smilax china = experiment: as above; settings: Plant No. 17 Smilax china, One month
Description: as §1

[1] = system: various weeds and brush (overall evaluation); experiment: as above; settings: OE overall evaluation, One month
Description: as §1

Larix leptolepis = experiment: Foliage treatment of woody plants (Example 10); settings: Plant No. 23 Larix leptolepis
Description: (§2) Aqueous solutions containing Phosalacine (Na salt) at different concentrations and 0.1% of octylphenylpolyoxy ethanol as surfactant were applied at a rate of 1500 liter per hectare to woody plants of about 60-70 cm in height. 7 and 14 days after the foliage treatment, damage to the plants was visually assessed on a scale of from 0 to 5 (cf. Example 7).

Castanea crenata = experiment: Foliage treatment of woody plants (Example 10); settings: Plant No. 8 Castanea crenata
Description: as §2

Picea densiflora = experiment: Foliage treatment of woody plants (Example 10); settings: Plant No. 22 Picea densiflora
Description: as §2

Artemisia princeps = experiment: Foliage treatment (Example 8); settings: Plant No. 1 Artemisia princeps
Experimental: (§3) Aqueous solutions of Phosalacine (Na salt) at different concentrations were applied at a rate of 1500 liters per hectare to naturally occurring plants or plants which were cultured on plates as shown in the following Table at certain stages of growth. […]

Allium fistulosum = experiment: Foliage treatment (Example 8); settings: Plant No. 27 Allium fistulosum
Experimental: as §3

Glycine max = experiment: Foliage treatment (Example 8); settings: Plant No. 34 Glycine max
Experimental: as §3

Euphonia supina = experiment: Foliage treatment (Example 8); settings: Plant No. 36 Euphonia supina
Experimental: as §3

Cucumis sativus = experiment: Foliage treatment (Example 8); settings: Plant No. 33 Cucumis sativus
Experimental: as §3

Arctium lappa = experiment: Foliage treatment (Example 8); settings: Plant No. 30 Arctium lappa, 14 days
Experimental: as §3

Brassica oleracea = experiment: Foliage treatment (Example 8); settings: Plant No. 28 Brassica oleracea
Experimental: as §3

[2] = system: Eleucine indica var. carocana; experiment: Foliage treatment (Example 8); settings: Plant No. 24 Eleucine indica var. carocana
Experimental: as §3

Miscanthus sinensis = experiment: Foliage treatment (Example 8); settings: Plant No. 5 Miscanthus sinensis
Experimental: as §3

Oxalis corniculata = experiment: Foliage treatment (Example 8); settings: Plant No. 35 Oxalis corniculata
Experimental: as §3

CC(C)C[C@H](NC(=O)[C@H](C)NC(=O)[C@@H](N)CCP(C)(=O)O)C(=O)O [Phosalacine (Na salt)]
damage to weeds and brush, scale 0 to 5 (Pteridium aquilinum; 0.05%): 3
damage to weeds and brush, scale 0 to 5 (Pteridium aquilinum; 0.1%): 5
damage to weeds and brush, scale 0 to 5 (Pteridium aquilinum; 0.2%): 5
damage to weeds and brush, scale 0 to 5 (Zanthoxylum piperitum; 0.05%): 3
damage to weeds and brush, scale 0 to 5 (Zanthoxylum piperitum; 0.1%): 5
damage to weeds and brush, scale 0 to 5 (Zanthoxylum piperitum; 0.2%): 5
damage to weeds and brush, scale 0 to 5 (Viburnum dilatatum; 0.05%): 3
damage to weeds and brush, scale 0 to 5 (Viburnum dilatatum; 0.1%): 5
damage to weeds and brush, scale 0 to 5 (Viburnum dilatatum; 0.2%): 5
damage to weeds and brush, scale 0 to 5 (Rubus palmatus; 0.05%): 3
damage to weeds and brush, scale 0 to 5 (Rubus palmatus; 0.1%): 5
damage to weeds and brush, scale 0 to 5 (Rubus palmatus; 0.2%): 5
damage to weeds and brush, scale 0 to 5 (Smilax china; 0.05%): 3
damage to weeds and brush, scale 0 to 5 (Smilax china; 0.1%): 5
damage to weeds and brush, scale 0 to 5 (Smilax china; 0.2%): 5
damage to weeds and brush, scale 0 to 5 ([1]; 0.05%): 3
damage to weeds and brush, scale 0 to 5 ([1]; 0.1%): 5
damage to weeds and brush, scale 0 to 5 ([1]; 0.2%): 5
damage to the plants, scale 0 to 5 (Larix leptolepis; 0.125%, 7 days): 4
damage to the plants, scale 0 to 5 (Larix leptolepis; 0.125%, 14 days): 5
damage to the plants, scale 0 to 5 (Larix leptolepis; 0.25%, 7 days): 4
damage to the plants, scale 0 to 5 (Larix leptolepis; 0.25%, 14 days): 5
damage to the plants, scale 0 to 5 (Larix leptolepis; 0.5%, 7 days): 4
damage to the plants, scale 0 to 5 (Larix leptolepis; 0.5%, 14 days): 5
damage to the plants, scale 0 to 5 (Castanea crenata; 0.125%, 7 days): 5
damage to the plants, scale 0 to 5 (Castanea crenata; 0.125%, 14 days): 5
damage to the plants, scale 0 to 5 (Castanea crenata; 0.25%, 7 days): 5
damage to the plants, scale 0 to 5 (Castanea crenata; 0.25%, 14 days): 5
damage to the plants, scale 0 to 5 (Castanea crenata; 0.5%, 7 days): 5
damage to the plants, scale 0 to 5 (Castanea crenata; 0.5%, 14 days): 5
damage to the plants, scale 0 to 5 (Picea densiflora; 0.125%, 7 days): 4
damage to the plants, scale 0 to 5 (Picea densiflora; 0.125%, 14 days): 5
damage to the plants, scale 0 to 5 (Picea densiflora; 0.25%, 7 days): 4
damage to the plants, scale 0 to 5 (Picea densiflora; 0.25%, 14 days): 5
damage to the plants, scale 0 to 5 (Picea densiflora; 0.5%, 7 days): 4
damage to the plants, scale 0 to 5 (Picea densiflora; 0.5%, 14 days): 5
damage to the plants, scale 0 to 5 (Artemisia princeps; 0.05%, 7 days): 3
damage to the plants, scale 0 to 5 (Artemisia princeps; 0.05%, 14 days): 4
damage to the plants, scale 0 to 5 (Artemisia princeps; 0.1%, 7 days): 5
damage to the plants, scale 0 to 5 (Artemisia princeps; 0.1%, 14 days): 5
damage to the plants, scale 0 to 5 (Allium fistulosum; 0.05%, 7 days): 3
damage to the plants, scale 0 to 5 (Allium fistulosum; 0.05%, 14 days): 5
damage to the plants, scale 0 to 5 (Allium fistulosum; 0.1%, 7 days): 5
damage to the plants, scale 0 to 5 (Allium fistulosum; 0.1%, 14 days): 5
damage to the plants, scale 0 to 5 (Glycine max; 0.05%, 7 days): 3
damage to the plants, scale 0 to 5 (Glycine max; 0.05%, 14 days): 5
damage to the plants, scale 0 to 5 (Glycine max; 0.1%, 7 days): 5
damage to the plants, scale 0 to 5 (Glycine max; 0.1%, 14 days): 5
damage to the plants, scale 0 to 5 (Euphonia supina; 0.05%, 7 days): 3
damage to the plants, scale 0 to 5 (Euphonia supina; 0.05%, 14 days): 4
damage to the plants, scale 0 to 5 (Euphonia supina; 0.1%, 7 days): 5
damage to the plants, scale 0 to 5 (Euphonia supina; 0.1%, 14 days): 5
damage to the plants, scale 0 to 5 (Cucumis sativus; 0.05%, 7 days): 3
damage to the plants, scale 0 to 5 (Cucumis sativus; 0.05%, 14 days): 4
damage to the plants, scale 0 to 5 (Cucumis sativus; 0.1%, 7 days): 5
damage to the plants, scale 0 to 5 (Cucumis sativus; 0.1%, 14 days): 5
damage to the plants, scale 0 to 5 (Arctium lappa; 0.05%): 4
damage to the plants, scale 0 to 5 (Arctium lappa; 0.1%): 5
damage to the plants, scale 0 to 5 (Brassica oleracea; 0.05%, 7 days): 3
damage to the plants, scale 0 to 5 (Brassica oleracea; 0.05%, 14 days): 4
damage to the plants, scale 0 to 5 (Brassica oleracea; 0.1%, 7 days): 5
damage to the plants, scale 0 to 5 (Brassica oleracea; 0.1%, 14 days): 5
damage to the plants, scale 0 to 5 ([2]; 0.05%, 7 days): 3
damage to the plants, scale 0 to 5 ([2]; 0.05%, 14 days): 4
damage to the plants, scale 0 to 5 ([2]; 0.1%, 7 days): 5
damage to the plants, scale 0 to 5 ([2]; 0.1%, 14 days): 5
damage to the plants, scale 0 to 5 (Miscanthus sinensis; 0.05%, 7 days): 3
damage to the plants, scale 0 to 5 (Miscanthus sinensis; 0.05%, 14 days): 4
damage to the plants, scale 0 to 5 (Miscanthus sinensis; 0.1%, 7 days): 5
damage to the plants, scale 0 to 5 (Miscanthus sinensis; 0.1%, 14 days): 5
damage to the plants, scale 0 to 5 (Oxalis corniculata; 0.05%, 7 days): 3
damage to the plants, scale 0 to 5 (Oxalis corniculata; 0.05%, 14 days): 4
damage to the plants, scale 0 to 5 (Oxalis corniculata; 0.1%, 7 days): 5
damage to the plants, scale 0 to 5 (Oxalis corniculata; 0.1%, 14 days): 5

From US4613355A, “Antibiotic having herbicidal activity” (Satoshi Omura, priority 1983, dated 1986)
